Experimental data reported in US12083124B2 (Incyte Corporation, priority 2019, dated 2024).
pIC50: −log10 of the molar value. Where two headings read alike, the source gives them in different places.

Assays:
[1] = molecular target: wild-type un-phosphorylated FGFR2 (Homo sapiens, UniProt P21802); assay: FGFR Enzymatic Assay (FRET peptide phosphorylation), FGFR2
Experimental: The inhibitor potency of the exemplified compounds was determined in an enzyme discontinuous assay that measures peptide phosphorylation using FRET measurements to detect product formation. Inhibitors were serially diluted in DMSO and a volume of 0.2 μL was transferred to the wells of a 384-well plate. […] Appropriate controls (enzyme blank and enzyme with no inhibitor) were included on the plate. […] The 10 μL/well reaction concentration of the peptide substrate was 500 nM whereas the ATP concentration was maintained near or below the ATP Km. The ATP Km values were pre-determined in a separate series of experiments. The reaction plate was incubated at 25° C. for 1 hr and the reactions were ended with the addition of 5 μL/well of quench solution (50 mM Tris, 150 mM NaCl, 0.5 mg/mL BSA, pH 7.8; 45 mM EDTA, 600 nM staurosporin, with Perkin Elmer Lance Reagents at 3.75 nM Eu-antibody PY20 and 180 nM APC-Streptavidin). The plate was allowed to equilibrate for ˜10 minutes at ambient temperature before scanning on a PheraStar plate reader (BMG Labtech) instrument.
Either GraphPad prism or XLfit was used to analyze the data. The IC50 values were derived by fitting the data to a four parameter logistic equation producing a sigmoidal dose-response curve with a variable Hill coefficient. Prism equation: Y=Bottom+(Top-Bottom)/(1+10^((Log IC50-X)*Hill slope)); XLfit equation: Y=(A+((B−A)/(1+((X/C)^D)))) where X is the logarithm of inhibitor concentration and Y is the response.
GraphPad prism3 was used to analyze the data. The IC50 values were derived by fitting the data to the equation for a sigmoidal dose-response with a variable slope. Y=Bottom+(Top-Bottom)/(1+10^((Log IC50-X)*Hill Slope)) where X is the logarithm of concentration and Y is the response.
The data in Table 1 was measured in wild-type un-phosphorylated FGFR1, FGFR2, FGFR3, and FGFR4 proteins.

[2] = molecular target: wild-type un-phosphorylated FGFR1 (Homo sapiens, UniProt P11362); assay: FGFR Enzymatic Assay (FRET peptide phosphorylation), FGFR1; settings: pre-incubated for 4 hours
[3] = molecular target: wild-type un-phosphorylated FGFR3 (Homo sapiens, UniProt P22607); assay: FGFR Enzymatic Assay (FRET peptide phosphorylation), FGFR3
[4] = read-out: FGFR1, wild-type un-phosphorylated FGFR1
[5] = read-out: FGFR2, wild-type un-phosphorylated FGFR2, pre-incubated for 4 hours
[6] = read-out: FGFR3, wild-type un-phosphorylated FGFR3, pre-incubated for 4 hours
[7] = FGFR1, wild-type un-phosphorylated FGFR1

wild-type un-phosphorylated FGFR2, sequence (P21802 22-821): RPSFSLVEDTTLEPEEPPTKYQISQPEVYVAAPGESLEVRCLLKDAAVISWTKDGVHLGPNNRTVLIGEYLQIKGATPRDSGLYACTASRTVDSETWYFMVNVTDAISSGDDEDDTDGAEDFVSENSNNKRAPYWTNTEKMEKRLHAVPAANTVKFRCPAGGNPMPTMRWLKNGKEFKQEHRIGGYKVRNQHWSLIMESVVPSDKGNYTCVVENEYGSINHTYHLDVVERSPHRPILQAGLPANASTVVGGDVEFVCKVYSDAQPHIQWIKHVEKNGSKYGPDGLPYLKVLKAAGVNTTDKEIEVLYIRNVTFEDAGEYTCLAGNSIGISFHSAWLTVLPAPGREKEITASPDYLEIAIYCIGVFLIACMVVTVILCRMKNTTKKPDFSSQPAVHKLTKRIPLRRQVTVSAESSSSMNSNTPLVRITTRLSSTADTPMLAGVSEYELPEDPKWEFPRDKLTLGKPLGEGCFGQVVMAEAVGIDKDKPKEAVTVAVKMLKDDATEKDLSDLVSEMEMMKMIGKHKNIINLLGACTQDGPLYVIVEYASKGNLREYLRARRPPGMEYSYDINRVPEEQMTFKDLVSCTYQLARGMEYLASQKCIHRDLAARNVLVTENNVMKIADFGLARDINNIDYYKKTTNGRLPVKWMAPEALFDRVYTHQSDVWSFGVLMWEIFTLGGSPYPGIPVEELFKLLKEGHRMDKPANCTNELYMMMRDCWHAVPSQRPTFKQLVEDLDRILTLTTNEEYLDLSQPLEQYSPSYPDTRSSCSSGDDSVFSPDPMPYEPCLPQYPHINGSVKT
wild-type un-phosphorylated FGFR1, sequence (P11362 22-822): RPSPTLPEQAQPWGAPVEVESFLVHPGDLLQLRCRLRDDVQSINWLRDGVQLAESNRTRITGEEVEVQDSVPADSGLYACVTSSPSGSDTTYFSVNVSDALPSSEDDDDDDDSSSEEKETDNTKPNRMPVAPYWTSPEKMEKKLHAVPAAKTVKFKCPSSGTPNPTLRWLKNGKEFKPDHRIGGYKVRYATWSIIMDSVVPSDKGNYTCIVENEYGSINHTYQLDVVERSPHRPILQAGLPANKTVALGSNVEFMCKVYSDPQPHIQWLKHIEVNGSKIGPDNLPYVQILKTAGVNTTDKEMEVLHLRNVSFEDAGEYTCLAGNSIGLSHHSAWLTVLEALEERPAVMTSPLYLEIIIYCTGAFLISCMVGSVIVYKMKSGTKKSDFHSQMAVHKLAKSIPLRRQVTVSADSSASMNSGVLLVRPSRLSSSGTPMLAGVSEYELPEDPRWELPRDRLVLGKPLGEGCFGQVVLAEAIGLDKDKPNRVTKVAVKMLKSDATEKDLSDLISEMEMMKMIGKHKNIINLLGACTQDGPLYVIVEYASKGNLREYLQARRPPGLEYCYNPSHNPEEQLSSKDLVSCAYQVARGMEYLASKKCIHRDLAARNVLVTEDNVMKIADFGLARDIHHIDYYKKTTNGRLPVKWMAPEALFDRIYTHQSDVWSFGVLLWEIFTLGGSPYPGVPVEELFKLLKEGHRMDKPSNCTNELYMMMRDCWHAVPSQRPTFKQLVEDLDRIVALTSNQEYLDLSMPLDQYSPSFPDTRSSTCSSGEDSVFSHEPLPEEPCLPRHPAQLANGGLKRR
wild-type un-phosphorylated FGFR3, sequence (P22607 23-806): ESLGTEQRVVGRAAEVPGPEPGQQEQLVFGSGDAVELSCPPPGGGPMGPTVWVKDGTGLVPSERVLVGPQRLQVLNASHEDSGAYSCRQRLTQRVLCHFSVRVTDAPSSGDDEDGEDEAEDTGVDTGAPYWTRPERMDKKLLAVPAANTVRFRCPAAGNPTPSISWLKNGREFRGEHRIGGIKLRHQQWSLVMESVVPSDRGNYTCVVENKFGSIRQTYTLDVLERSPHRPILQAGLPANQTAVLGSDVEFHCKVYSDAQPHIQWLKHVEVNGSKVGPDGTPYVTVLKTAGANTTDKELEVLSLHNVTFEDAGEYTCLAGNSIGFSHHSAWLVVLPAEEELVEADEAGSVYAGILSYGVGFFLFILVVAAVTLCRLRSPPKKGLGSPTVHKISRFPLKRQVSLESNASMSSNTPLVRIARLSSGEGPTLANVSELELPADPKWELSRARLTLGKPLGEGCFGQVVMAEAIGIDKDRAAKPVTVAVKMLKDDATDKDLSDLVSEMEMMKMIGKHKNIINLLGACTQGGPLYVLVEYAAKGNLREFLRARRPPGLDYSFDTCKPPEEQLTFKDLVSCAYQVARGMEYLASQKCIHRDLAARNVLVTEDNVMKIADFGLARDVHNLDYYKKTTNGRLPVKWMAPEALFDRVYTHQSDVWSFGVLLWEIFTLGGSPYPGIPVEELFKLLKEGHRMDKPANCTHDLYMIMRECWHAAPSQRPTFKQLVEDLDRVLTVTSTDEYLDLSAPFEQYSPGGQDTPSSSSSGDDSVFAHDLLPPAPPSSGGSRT

Structure (SMILES)	pIC50 [1]	pIC50 [2, 4]	pIC50 [3]	pIC50 [1, 5]	pIC50 [3, 6]	pIC50 [2, 7]
COc1cc2[nH]nc(-c3cnn(Cc4ncnn4C)c3)c2nc1-c1cccc(C)c1C [Example 3, 5-(2,3-Dimethylphenyl)-6-methoxy-3-(1-((1-methyl-1H-1,2,4-triazol-5-yl)methyl)-1H-pyrazol-4-yl)-1H-pyrazolo[4,3-b]pyridine]	> 8.22	–	> 8.22	–	–	7.00 to 7.40
CC(=O)N1CCN(c2ccc(-c3n[nH]c4cc(OC(F)F)c(-c5cccc(C)c5C)nc34)cn2)CC1 [Example 6, 1-(4-(5-(6-(Difluoromethoxy)-5-(2,3-dimethylphenyl)-1H-pyrazolo[4,3-b]pyridin-3-yl)pyridin-2-yl)piperazin-1-yl)ethan-1-one]	> 8.22	–	> 8.22	–	–	< 7.00
COc1cc2[nH]nc(-c3ccc(N4CCN(C(C)=O)CC4)nc3)c2nc1-c1cccc(C)c1C [Example 43, 1-(4-(5-(5-(2,3-Dimethylphenyl)-6-methoxy-1H-pyrazolo[4,3-b]pyridin-3-yl)pyridin-2-yl)piperazin-1-yl)ethan-1-one]	> 8.22	–	> 8.22	–	–	< 7.00
COc1cc2[nH]nc(-c3ccc(N4CCN(C)C(=O)C4)nc3)c2nc1-c1cccc(C)c1C [Example 45, 4-(5-(5-(2,3-Dimethylphenyl)-6-methoxy-1H-pyrazolo[4,3-b]pyridin-3-yl)pyridin-2-yl)-1-methylpiperazin-2-one]	> 8.22	–	> 8.22	–	–	< 7.00
COc1cc2[nH]nc(-c3ccc(N4CCC(O)CC4)nc3)c2nc1-c1cccc(C)c1C [Example 46, 1-(5-(5-(2,3-Dimethylphenyl)-6-methoxy-1H-pyrazolo[4,3-b]pyridin-3-yl)pyridin-2-yl)piperidin-4-ol]	> 8.22	–	> 8.22	–	–	< 7.00
[2H]C([2H])([2H])Oc1cc2[nH]nc(-c3ccc(N4CCN(C)CC4)nc3)c2nc1-c1cccc(C)c1C [Example 48, 5-(2,3-Dimethylphenyl)-6-(methoxy-d3)-3-(6-(4-methylpiperazin-1-yl)pyridin-3-yl)-1H-pyrazolo[4,3-b]pyridine]	> 8.22	–	> 8.22	–	–	7.00 to 7.40
COc1cc2[nH]nc(-c3ccc(N4CCC(C(=O)N(C)C)CC4)nc3)c2nc1-c1cccc(C)c1C [Example 50, 1-(5-(5-(2,3-Dimethylphenyl)-6-methoxy-1H-pyrazolo[4,3-b]pyridin-3-yl)pyridin-2-yl)-N,N-dimethylpiperidine-4-carboxamide]	> 8.22	–	> 8.22	–	–	< 7.00
COc1cc2[nH]nc(-c3ccc(N4CCC(C)(C(=O)O)CC4)nc3)c2nc1-c1cccc(C)c1C [Example 51, 1-(5-(5-(2,3-Dimethylphenyl)-6-methoxy-1H-pyrazolo[4,3-b]pyridin-3-yl)pyridin-2-yl)-4-methylpiperidine-4-carboxylic acid]	> 8.22	–	> 8.22	–	–	7.00 to 7.40
COc1cc2[nH]nc(-c3ccc(N4CCC5(CC4)CNC(=O)O5)nc3)c2nc1-c1cccc(C)c1C [Example 65, 8-(5-(5-(2,3-Dimethylphenyl)-6-methoxy-1H-pyrazolo[4,3-b]pyridin-3-yl)pyridin-2-yl)-1-oxa-3,8-diazaspiro[4.5]decan-2-one]	> 8.22	–	> 8.22	–	–	< 7.00
[2H]C([2H])([2H])c1cccc(-c2nc3c(-c4ccc(N5CCN(C)CC5)nc4)n[nH]c3cc2OC)c1C [Example 68, 6-Methoxy-5-(2-methyl-3-(methyl-d3)phenyl)-3-(6-(4-methylpiperazin-1-yl)pyridin-3-yl)-1H-pyrazolo[4,3-b]pyridine]	> 8.22	–	> 8.22	–	–	7.00 to 7.40
COc1cc2[nH]nc(-c3ccc(C4CCC(C(=O)O)CC4)nc3)c2nc1-c1cccc(C)c1C (stereo not drawn) [Example 79, 4-(5-(5-(2,3-Dimethylphenyl)-6-methoxy-1H-pyrazolo[4,3-b]pyridin-3-yl)pyridin-2-yl)cyclohexane-1-carboxylic acid]	> 8.22	–	> 8.22	–	–	7.00 to 7.40

Other lines, results leading:

pIC50 [1]	pIC50 [2, 4]	pIC50 [3]	pIC50 [1, 5]	pIC50 [3, 6]	pIC50 [2, 7]	Structure (SMILES)
> 8.22	7.40 to 8.22	> 8.22	–	–	–	COc1cc2[nH]nc(-c3ccc(C45CC4CN(C(=O)CO)C5)nc3)c2nc1-c1cccc2c1CCC2 (single isomer, unassigned) [Example 191B, 1-(1-(5-(5-(2,3-Dihydro-1H-inden-4-yl)-6-methoxy-1H-pyrazolo[4,3-b]pyridin-3-yl)pyridin-2-yl)-3-azabicyclo[3.1.0]hexan-3-yl)-2-hydroxyethan-1-one]
–	7.40 to 8.22	–	> 8.22	> 8.22	–	COc1cc2[nH]nc(-c3ccc(C45CC4CN(C(=O)CO)C5)nc3)c2nc1-c1cccc2c1CCC2 (single isomer, unassigned) [Example 191C, 1-(1-(5-(5-(2,3-Dihydro-1H-inden-4-yl)-6-methoxy-1H-pyrazolo[4,3-b]pyridin-3-yl)pyridin-2-yl)-3-azabicyclo[3.1.0]hexan-3-yl)-2-hydroxyethan-1-one]
> 8.22	7.40 to 8.22	> 8.22	–	–	–	COc1cc2[nH]nc(-c3ccc(C45CC4CN(CCO)C5)nc3)c2nc1-c1cccc2c1CCC2 (single isomer, unassigned) [Example 194B, 2-(1-(5-(5-(2,3-Dihydro-1H-inden-4-yl)-6-methoxy-1H-pyrazolo[4,3-b]pyridin-3-yl)pyridin-2-yl)-3-azabicyclo[3.1.0]hexan-3-yl)ethan-1-ol]
–	7.40 to 8.22	–	> 8.22	> 8.22	–	COc1cc2[nH]nc(-c3ccc(C45CC4CN(CCO)C5)nc3)c2nc1-c1cccc2c1CCC2 (single isomer, unassigned) [Example 194C, 2-(1-(5-(5-(2,3-Dihydro-1H-inden-4-yl)-6-methoxy-1H-pyrazolo[4,3-b]pyridin-3-yl)pyridin-2-yl)-3-azabicyclo[3.1.0]hexan-3-yl)ethan-1-ol]
> 8.22	–	> 8.22	–	–	7.00 to 7.40	COc1cc2[nH]nc(-c3ccc(N4C[C@@H](F)[C@@H](N)C4)nc3)c2nc1-c1cccc(C)c1C [Example 80, (3S,4R)-1-(5-(5-(2,3-Dimethylphenyl)-6-methoxy-1H-pyrazolo[4,3-b]pyridin-3-yl)pyridin-2-yl)-4-fluoropyrrolidin-3-amine]
> 8.22	7.40 to 8.22	> 8.22	–	–	–	COc1cc2[nH]nc(-c3ccc(C4CCN(C(=O)CO)CC4)nc3)c2nc1-c1cccc2c1CC(F)C2 (stereo not drawn) [Example 82, 1-(4-(5-(5-(2-Fluoro-2,3-dihydro-1H-inden-4-yl)-6-methoxy-1H-pyrazolo[4,3-b]pyridin-3-yl)pyridin-2-yl)piperidin-1-yl)-2-hydroxyethan-1-one]
> 8.22	7.40 to 8.22	> 8.22	–	–	–	COc1cc2[nH]nc(-c3ccc(N4CCN5C[C@H](O)C[C@H]5C4)nc3)c2nc1-c1cccc2c1CC(F)C2 (stereo partly drawn) [Example 83, (7R,8aS)-2-(5-(5-(2-Fluoro-2,3-dihydro-1H-inden-4-yl)-6-methoxy-1H-pyrazolo[4,3-b]pyridin-3-yl)pyridin-2-yl)octahydropyrrolo[1,2-a]pyrazin-7-ol]
> 8.22	–	> 8.22	–	–	< 7.00	COc1cc2[nH]nc(-c3ccc(N4CCS(=N)(=O)CC4)nc3)c2nc1-c1cccc(C)c1C [Example 86, 4-(5-(5-(2,3-Dimethylphenyl)-6-methoxy-1H-pyrazolo[4,3-b]pyridin-3-yl)pyridin-2-yl)-1-imino-1λ^6-thiomorpholine 1-oxide]
> 8.22	–	> 8.22	–	–	< 7.00	COc1cc2[nH]nc(-c3ccc(N4CCN(CCO)CC4)nc3)c2nc1-c1cccc(CC#N)c1C [Example 89, 2-(3-(3-(6-(4-(2-Hydroxyethyl)piperazin-1-yl)pyridin-3-yl)-6-methoxy-1H-pyrazolo[4,3-b]pyridin-5-yl)-2-methylphenyl)acetonitrile]
–	–	> 8.22	7.40 to 8.22	–	< 7.00	COc1cc2[nH]nc(-c3ccc(N4CCN5C[C@H](O)C[C@H]5C4)nc3)c2nc1-c1cccc(OC)c1C [Example 90, (7R,8aS)-2-(5-(6-Methoxy-5-(3-methoxy-2-methylphenyl)-1H-pyrazolo[4,3-b]pyridin-3-yl)pyridin-2-yl)octahydropyrrolo[1,2-a]pyrazin-7-ol]
–	–	> 8.22	7.40 to 8.22	–	< 7.00	COc1cc2[nH]nc(-c3ccc(N4CCN5C[C@H](O)C[C@H]5C4)nc3)c2nc1-c1cccc2c1OCCO2 [Example 91, (7R,8aS)-2-(5-(5-(2,3-Dihydrobenzo[b][1,4]dioxin-5-yl)-6-methoxy-1H-pyrazolo[4,3-b]pyridin-3-yl)pyridin-2-yl)octahydropyrrolo[1,2-a]pyrazin-7-ol]
–	–	> 8.22	7.40 to 8.22	–	< 7.00	COc1cc2[nH]nc(-c3ccc(N4CCN5C[C@H](O)C[C@H]5C4)nc3)c2nc1-c1ccccc1C1CC1 [Example 92, (7R,8aS)-2-(5-(5-(2-Cyclopropylphenyl)-6-methoxy-1H-pyrazolo[4,3-b]pyridin-3-yl)pyridin-2-yl)octahydropyrrolo[1,2-a]pyrazin-7-ol]
–	–	> 8.22	7.40 to 8.22	–	< 7.00	COc1cc2[nH]nc(-c3ccc(N4CCN5C[C@H](O)C[C@H]5C4)nc3)c2nc1-c1cccc2c1CCCO2 [Example 93, (7R,8aS)-2-(5-(5-(Chroman-5-yl)-6-methoxy-1H-pyrazolo[4,3-b]pyridin-3-yl)pyridin-2-yl)octahydropyrrolo[1,2-a]pyrazin-7-ol]
–	–	> 8.22	7.40 to 8.22	–	< 7.00	COc1cc2[nH]nc(-c3ccc(N4CCN5C[C@H](O)C[C@H]5C4)nc3)c2nc1-c1cccc(C)c1F [Example 94, (7R,8aS)-2-(5-(5-(2-Fluoro-3-methylphenyl)-6-methoxy-1H-pyrazolo[4,3-b]pyridin-3-yl)pyridin-2-yl)octahydropyrrolo[1,2-a]pyrazin-7-ol]
